# Data as given in patent US20240299345A1, “GINKGOLIDE B AND ITS DERIVATIVES FOR INHIBITING AND/OR REVERSING AGING” (CHINA MEDICAL UNIVERSITY, priority 2023, published 2024).
# Columns and labels:
# [1] = test system: kidney, heart, spleen and liver in aged mice; experiment: Organ pathology, blood chemistry and tolerability after 2 months of GB in mice
# Procedure: (§3) All animals were purchased from Laboratory Animal Services Centre, the Chinese University of Hong Kong, ad libitum fed the standard diet (#5V0f, LabDiet, St. Louis, MO, USA), and housed at specific-pathogen-free and humidity-controlled conditions under a 12 light: 12 dark photoperiod with temperature at 20-22° C. Animals were kept up to five per cage and were randomly assigned to control and experimental groups in all experiments. […] For the short-term experiment, 3-(young), 6-(adult) and 20-month-old (aged) female C57BL/6 mice were administered 12 mg/kg body weight GB (#G6910, Sigma-Aldrich, St. Louis, MO, USA) or vehicle daily by oral gavage for two months. […] GB was diluted to the appropriate concentration in 100 μL of sterile PBS (#10378016, Gibco, Waltham, MA, USA).
# (§4) Tissue samples were harvested and embedded in paraffin or in OCT (#4583, Sakura Finetek USA, Torrance, CA, USA). For paraffin-embedded samples, 10 μm sections were deparaffinized by xylene and alcohol gradient treatment and were then hydrated by distilled water and processed for heat-induced antigen retrieval with antigen retrieval solution at 70° C. for 1.5 hours before staining. For OCT-embedded samples, 10 μm sections were hydrated by distilled water before staining. Hematoxylin and cosin staining (#MHS16 and #HT110116 Sigma-Aldrich), oil red O staining (#00625, Sigma-Aldrich), and Masson's trichrome staining (#HT15, Sigma-Aldrich) were used to assess the histology, lipid droplet, and collagen deposition. For immunohistochemical staining, antigen-retrieval samples were blocked with 5% bovine serum albumin (BSA) (#A9647, Sigma-Aldrich) for 1 hour at room temperature and incubated with primary antibodies overnight at 4° C., followed by a ready-to-use IHC/ICC Kit (#K405, BioVision, Milpitas, CA, USA) at room temperature. The samples were then suspended with double-distilled water and then stained with hematoxylin. For immunocytochemical staining, samples were blocked with 5% BSA (Sigma-Aldrich) for 1 hour at room temperature and incubated with primary antibodies overnight at 4° C., then washed with PBS for ten minutes, and then incubated with secondary antibody for 1 hour at room temperature, then washed with PBS three times for ten minutes.
# healthy adult humans = conditions: short-term pharmacological studies; cited from earlier work
# [2] = test system: kidney, heart, spleen and liver in aged mice; conditions: mouse, in vivo
# Procedure: as §3, §4
# [3] = test system: 6-month-old female C57BL/6 mice; experiment: GB in 6-month-old adult mice (steady state): osteocalcin, myofiber CSA, grip strength; format: in vivo, mouse; conditions: 6-month-old female mice
# Procedure: (§1) Forelimb grip strength was measured by a grip strength meter (Muromachi Kikai Co., Tokyo, Japan). Each mouse performed five trials for force measurement, and the values were normalized to body and recorded. A rotarod test was carried out by using the rotarod treadmill (Singa Technology Corporation, Taoyuan City, Taiwan). The speed was adjusted to 4 rpm for 4 sec, 10 rpm for 10 sec, 20 rpm for 20 sec, and then 40 rpm until the mice fell. Mice were familiarized with the rotarod and balance beam by running 5 min for three consecutive days before the onset of experimentation. During the experiment, each mouse performed four trials, and the average time that each rodent was able to stay on top of the rotarod treadmill was recorded. The balance beam test was used to assess subtle motor coordination and balance. After initial training, mice were given four consecutive trials where they were required to cross 60 cm of a round beam (14 mm in diameter). The time for crossing the beam and the number of hind-feet slip were recorded. Hanging endurance was determined by Kondziella's inverted hanging screen test. Mice were putted at the center of grasped wire screen (bar thickness, 2 mm; mesh, 10 mm). After inverting the wire screen, the time of sustained limb tension on the screen were recorded. A fixed maximum hanging limit of 600 seconds was used. Each trial was repeated three times at 30-min interval, the mean values were recorded.
# Serum was collected by cardiac puncture upon sacrifice.
# The maintenance of muscle mass and strength in adulthood reduces the risk of sarcopenia and improves healthspan. Osteocalcin is necessary to maintain muscle mass and health throughout the whole life, and loss of osteocalcin after the age of 30 leads to muscle loss. Since GB increased osteocalcin in aged osteoblasts, we postulated that oral GB administration could increase osteocalcin and skeletal muscle mass in mice. In a proof-of-principle experiment, we gave GB to 6-month-old female mice equivalent to 30-year-old women for two months (FIG. 1A). […] GB administration enlarged the CSA of the tibialis anterior and soleus muscles (FIGS. 1C to 1E, p=0.021 and <0.0001, respectively) and increased forelimb grip strength (FIG. IF, p=0.036).
# [4] = test system: gastrocnemius (GA) muscle; experiment: Ex vivo muscle contractility and fatigability of GA muscle from treated aged mice; format: in vivo, mouse; conditions: GB 2 months
# Procedure: For the ex vivo muscle function test, the isolated right side gastrocnemius (GA) muscle were incubated in Krebs buffer at room temperature and with 95% O2 and 5% CO2 for five minutes. GA muscle received stimuli three times under the optimal length to evaluate twitch force. Three 150 Hz continuous stimuli were given to evaluate tetanic force. Twitch force and tetanic force were normalized to the cross-section area (CSA) of GA muscle. GA muscle fatigue was measured by repeated isometric tetanic contraction every 5 seconds for a total of 60 contractions. Five minutes and ten minutes after fatigue protocol, the maximal tetanic force was measured to assess post-fatigue recovery. All of the results were recorded with the Dynamic Muscle Control system (DMC v5.4; Aurora Scientific, Inc.), and results were analyzed by the Dynamic Muscle Analysis system (DMA v3.2; Aurora Scientific, Inc.).
# [5] = test system: 20-month-old aged female C57BL/6 mice; experiment: Physical functional analysis (grip strength, rotarod, hanging, balance beam) in aged mice; format: in vivo, mouse
# Procedure: as §1
# [6] = test system: IL-6, IFN-γ; F4/80, CD86, CD206 cells; experiment: Tissue inflammatory cytokines (real-time PCR) and bone marrow macrophage IHC in aged mice; format: in vivo, mouse
# Procedure: (§2) RNAs were purified by using the TRIzol® (#15596018, Invitrogen) and chloroform method (#C7559, Sigma-Aldrich) and reversed transcribed using High-Capacity cDNA Reverse Transcription Kit (#4368814, Applied Biosystems, Foster City, CA, USA). The quantitative RT-PCR was conducted with universal probe system (Roche Life Science, Indianapolis, IN, USA) by using a QuantStudio™ 7 Flex Real-Time PCR System (Applied Biosystems) and was normalized by the expression of GAPDH.
# p16, p19, p57, γ-H2AX = experiment: Senescence markers in multiple tissues of aged mice (real-time PCR, IHC); format: in vivo, mouse
# Procedure: as §2
# [7] = test system: ovariectomized (OVX) female C57BL/6 mice; experiment: Postmenopausal (OVX, estrogen-deficient) mouse model: muscle wasting and physical activity; format: in vivo
# Procedure: as §1
# [8] = GB 3 and 12 mg/kg daily for two months
compound,measurement,setting,value
"CC1C(=O)OC2C(O)C34C5CC(C(C)(C)C)C36C(OC(=O)C6O)OC4(C(=O)O5)C12O (centres unmarked) [GB, Ginkgolide B]",collagen deposition in multiple organs,"[1]; Masson's trichrome, aged mice",reduced
same,severe acute toxicity,"[1]; adult, aged or OVX mice, none of the treated mice dying during the two months of GB administration",did not find severe acute toxicity
same,compensatory hypertrophy of the kidney and heart,"[1]; aged mice, GB 2 months",decreased
same,aging-related compensatory hypertrophy of glomerulus,"[1]; aged mice, histopathology, p<0.0001",reduced
same,aging-related compensatory hypertrophy of cardiomyocytes,"[1]; aged mice, histopathology, p=0.0018",reduced
same,reduction of aging-related hepatic lipid accumulation,"[1]; aged mice, p<0.0001",3.8 fold
same,decrease in white pulp and white pulp/red pulp ratio in aged spleen,"[1]; aged mice, p<0.0001 and p=0.0143",ameliorated
same,number of hepatic microgranulomas,"[1]; aged mice, p=0.0031",decreased
same,tolerability of multiple administration,healthy adult humans,well tolerated
same,"circulating GOT, GPT and UA",[2],reduction
same,liver and spleen size,[2],no effect
same,CSA of the soleus muscle,"[3]; GB 12 mg/kg daily oral 2 months vs vehicle, p<0.0001",enlarged
same,CSA of the tibialis anterior muscle,"[3]; GB 12 mg/kg daily oral 2 months vs vehicle, p=0.021",enlarged
same,forelimb grip strength,"[3]; GB 12 mg/kg daily oral 2 months vs vehicle, p=0.036",increased
same,circulating osteocalcin,"[3]; GB 12 mg/kg daily oral gavage 2 months vs vehicle, p=0.0114",significantly higher
same,absolute tetanic force,[4],significantly enhanced
same,absolute twitch force,[4],significantly enhanced
same,time to maximum force,[4]; p=0.0003,reversed the increased time to maximum force to the youth levels
same,specific force (normalized to muscle mass),[4]; p=0.1161 and 0.1935,modest increased
same,fatigue resistance or recovery rate,[4]; p=0.99 at five and ten minutes,did not alter
same,grip strength,"[5]; GB 12 mg/kg daily oral 2 months vs vehicle-aged, p<0.01",higher
same,duration of hanging,"[5]; GB 2 months vs vehicle-aged, p<0.0001",prolonged duration
same,duration on the rotarod,"[5]; GB 2 months vs vehicle-aged, p<0.05",prolonged duration
same,balance beam: latency to cross,"[5]; GB 2 months, p<0.001",decreased
same,balance beam: number of foot slips,"[5]; GB 2 months, p<0.001",reduced
same,inflammatory cytokines IL-6 and IFN-γ in multiple tissues,"[6]; GB 2 months, real-time PCR",downregulated
same,CD86+ pro-inflammatory M1 macrophages,[6]; femur bone marrow IHC,decrease
same,CD206+ anti-inflammatory M2 macrophages,[6]; femur bone marrow IHC,increased
same,aging-related accumulation of bone marrow F4/80+ cells,[6]; femur bone marrow IHC,reversed
same,expression of histone γ-H2AX,"p16, p19, p57, γ-H2AX; IHC, multiple tissues of aged mice",reduced
same,"expression of p16, p19 and p57","p16, p19, p57, γ-H2AX; liver, kidney, lung, spleen, heart and muscle of aged mice, except p16 in spleen and p57 in lung",significantly inhibited
same,myofiber CSA,[7]; [8],dose-dependently restored
same,skeletal muscle mass,[7]; [8],dose-dependently restored
same,decline of motor performance,"[7]; high-dose GB, two months",fully reversed
same,forelimb grip strength,"[7]; high-dose GB, two months",improved
